Laboratory results from patent publication US8536183B2, “3-pyridylcarbonyl-piperazinylsulfonyl derivatives” (Convergence Pharmaceuticals Limited, priority 2008, dated 2013).
Counter-ions that a name gives are not always drawn.

target: T1, hCaV2.2 (Homo sapiens, UniProt Q00975); assay: hCaV2.2 assay, IonWorks planar array electrophysiology in stably transfected HEK293 cells; type: cell-based; conditions: current elicited by the 1st depolarising pulse inhibited by 50%; HEK293 cells expressing human CaV2.2 alpha/beta3/alpha2delta1; read-out: mean pIC50 (tonic pIC50) (converted)
T1 construct: expressed in transfected cells; plasmids pCIN5-hCaV2.2, pCIH-hCaV β3, pCIP-α2δ1
Experimental: Compounds of the invention may be tested for in vitro biological activity in the hCaV2.2 assay in accordance with the following studies:
Stable cell lines expressing the human CaV2.2 α (als) subunit, along with the human […] and α2δ1 auxiliary subunits were created following sequential transfection and selection of human embryonic kidney (HEK293) cells. HEK293 cells were cultured in Dulbecco's modified Eagles media/F12 media (Invitrogen, Cat #041-95750V) containing 10% foetal bovine serum, with added L-glutamine (2 mM; Invitrogen, Cat #25030-024) and non-essential amino acids (5%; Invitrogen, Cat #11140-035). Initially HEK293 cells were transfected with two plasmid vectors for expression of the hCaV2.2 α subunit (pCIN5-hCaV2.2 which carries a neomycin resistance marker) and the hCaV β3 subunit (pCIH-hCaV β3 which carries a hygromycin resistance marker). Clonal cell lines were isolated following selection in media supplemented with 0.4 mg ml^−1 Geneticin G418 (Invitrogen, Cat #10131-027) and 0.1 mg ml^1 hygromycin (Invitrogen, Cat #10687-010). These clonal cell lines were assessed for Cav2.2α/β3-mediated current expression using the IonWorks planar array electrophysiology technology (described below). A clonal line was identified that gave a reasonable level of functional Cav2.2α/β3 current expression. This cell line was transfected with a plasmid vector for expression of the human […] subunit (pCIP-α2δ1 which carries a puromycin resistance marker) and clonal cell lines isolated following selection in media containing 0.62 μg ml^−1 puromycin (Sigma, Cat #P-7255), in addition to 0.4 mg ml^−1 Geneticin G418 and 0.1 mg ml^−1 hygromycin. Several cell lines were identified that gave robust levels of Cav2.2α/β3/α2δ1-mediated current expression and one of these was selected for compound profiling. Expression of all three subunits within this cell line was continuously maintained by the inclusion of G418 (0.4 mg ml^−1), hygromycin (0.1 mg ml^−1) and puromycin (0.62 μg ml^−1). Cells were maintained at 37° C. in a humidified environment containing 5% CO2 in air. Cells were liberated from the T175 culture flasks for passage and harvesting using TrpLE (Invitrogen, Cat #12604-013).
Cells were grown to 30-60% confluence in T175 flasks and maintained at 30° C. for 24 hrs prior to recording. Cells were lifted by removing the growth media, washing with Ca^2+ free PBS (Invitrogen, Cat #14190-094) and incubating with 3 ml of warmed (37° C.) TrpLE (Invitrogen, Cat #12604-013) for 6 minutes. Lifted cells were suspended in 10 ml of extracellular buffer. Cell suspension was then placed into a 15 ml tube and centrifuged for 2 minutes at 700 rpm. After centrifugation, the supernatant was removed and the cell pellet was resuspended in 4.5 ml of extracellular solution.
Currents were recorded at room temperature (21-23° C.) using the IonWorks planar array electrophysiology technology (Molecular Devices Corp.). Stimulation protocols and data acquisition were carried out using a microcomputer (Dell Pentium 4). In order to determine planar electrode hole resistances (Rp), a 10 mV, 160 ms potential difference was applied across each hole. These measurements were performed before cell addition. After cell addition a seal test was performed prior to antibiotic (amphotericin) circulation to achieve intracellular access. Leak subtraction was conducted in all experiments by applying a 160 ms hyperpolarizing (10 mV) prepulse 200 ms before the test pulses to measure leak conductance. Test pulses stepping from the holding potential (VH) of −90 mV to +10 mV were applied for 20 ms and repeated 10 times at a frequency of 10 Hz. In all experiments, the test pulse protocol was performed in the absence (pre-read) and presence (post-read) of a compound. Pre- and post-reads were separated by a compound addition followed by a 3-3.5 min incubation.
The intracellular solution contained the following (in mM): K-gluconate 120, KCl 20 mM, MgCl2 5, EGTA 5, HEPES 10, adjusted to pH 7.3. […]

T1 sequence (Q00975 whole entry): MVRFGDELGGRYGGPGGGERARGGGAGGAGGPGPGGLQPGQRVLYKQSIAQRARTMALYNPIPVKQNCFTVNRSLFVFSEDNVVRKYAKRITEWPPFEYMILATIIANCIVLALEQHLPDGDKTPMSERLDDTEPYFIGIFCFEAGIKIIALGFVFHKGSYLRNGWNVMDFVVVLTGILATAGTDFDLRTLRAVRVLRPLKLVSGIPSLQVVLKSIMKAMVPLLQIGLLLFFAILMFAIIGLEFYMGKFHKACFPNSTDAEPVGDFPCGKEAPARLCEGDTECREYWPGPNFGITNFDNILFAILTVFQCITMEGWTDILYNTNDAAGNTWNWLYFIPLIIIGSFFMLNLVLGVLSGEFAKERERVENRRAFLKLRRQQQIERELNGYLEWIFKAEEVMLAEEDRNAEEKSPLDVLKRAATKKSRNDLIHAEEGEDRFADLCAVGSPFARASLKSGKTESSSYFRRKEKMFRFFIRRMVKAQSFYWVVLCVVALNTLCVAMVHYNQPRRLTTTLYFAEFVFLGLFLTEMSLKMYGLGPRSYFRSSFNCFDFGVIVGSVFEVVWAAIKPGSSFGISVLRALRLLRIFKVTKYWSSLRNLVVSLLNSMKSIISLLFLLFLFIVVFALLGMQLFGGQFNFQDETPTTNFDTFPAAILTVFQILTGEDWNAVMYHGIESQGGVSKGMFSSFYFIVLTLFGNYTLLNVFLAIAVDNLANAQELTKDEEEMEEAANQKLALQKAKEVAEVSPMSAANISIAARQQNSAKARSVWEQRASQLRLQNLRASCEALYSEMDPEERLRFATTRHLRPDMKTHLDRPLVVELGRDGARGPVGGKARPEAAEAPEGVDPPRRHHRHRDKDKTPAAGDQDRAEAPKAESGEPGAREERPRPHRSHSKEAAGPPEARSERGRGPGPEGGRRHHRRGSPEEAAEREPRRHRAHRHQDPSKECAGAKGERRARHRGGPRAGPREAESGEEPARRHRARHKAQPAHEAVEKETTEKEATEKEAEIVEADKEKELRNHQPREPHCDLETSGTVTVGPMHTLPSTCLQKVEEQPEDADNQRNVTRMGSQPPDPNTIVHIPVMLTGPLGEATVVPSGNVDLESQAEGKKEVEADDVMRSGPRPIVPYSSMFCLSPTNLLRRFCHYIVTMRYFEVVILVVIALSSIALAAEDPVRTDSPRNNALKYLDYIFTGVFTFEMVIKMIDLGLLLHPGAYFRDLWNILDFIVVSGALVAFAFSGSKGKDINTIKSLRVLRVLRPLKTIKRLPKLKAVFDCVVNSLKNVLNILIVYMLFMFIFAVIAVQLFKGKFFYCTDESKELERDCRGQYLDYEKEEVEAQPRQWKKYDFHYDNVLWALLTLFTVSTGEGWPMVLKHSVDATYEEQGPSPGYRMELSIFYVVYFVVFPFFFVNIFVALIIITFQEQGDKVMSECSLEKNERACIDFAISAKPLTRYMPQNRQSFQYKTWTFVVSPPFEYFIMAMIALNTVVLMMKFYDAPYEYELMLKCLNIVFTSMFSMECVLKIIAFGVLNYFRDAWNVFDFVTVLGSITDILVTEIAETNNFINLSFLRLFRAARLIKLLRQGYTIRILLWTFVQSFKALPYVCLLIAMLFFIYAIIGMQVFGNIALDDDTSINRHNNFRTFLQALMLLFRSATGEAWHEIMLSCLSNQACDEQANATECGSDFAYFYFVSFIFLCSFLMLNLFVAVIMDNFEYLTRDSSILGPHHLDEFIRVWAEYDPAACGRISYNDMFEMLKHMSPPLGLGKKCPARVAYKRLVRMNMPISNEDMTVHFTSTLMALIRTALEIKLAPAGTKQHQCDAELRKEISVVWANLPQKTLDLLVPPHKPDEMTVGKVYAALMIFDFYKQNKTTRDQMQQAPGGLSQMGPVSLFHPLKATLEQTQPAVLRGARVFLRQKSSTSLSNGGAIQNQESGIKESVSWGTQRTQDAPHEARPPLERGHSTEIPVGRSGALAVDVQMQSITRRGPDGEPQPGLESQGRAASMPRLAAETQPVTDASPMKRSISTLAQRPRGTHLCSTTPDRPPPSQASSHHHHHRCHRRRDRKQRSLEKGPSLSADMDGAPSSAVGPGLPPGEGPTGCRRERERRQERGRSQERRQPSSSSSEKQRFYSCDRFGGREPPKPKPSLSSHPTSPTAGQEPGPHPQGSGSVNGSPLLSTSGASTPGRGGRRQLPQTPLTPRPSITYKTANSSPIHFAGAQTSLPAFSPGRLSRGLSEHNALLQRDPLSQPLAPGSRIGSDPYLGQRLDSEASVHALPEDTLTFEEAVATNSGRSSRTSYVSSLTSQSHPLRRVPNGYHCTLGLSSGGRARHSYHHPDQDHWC

SMILES | IC50
Cc1ccc(C(=O)N2CCN(S(=O)(=O)c3ccc(C(F)(F)F)cc3)C[C@@H]2C)c(C)n1 [Example 29, (2S)-1-[(2,6-Dimethyl-3-pyridinyl)carbonyl]-2-methyl-4-{[4-(trifluoromethyl)phenyl]sulfonyl}piperazine] | ≥ 10 µM
Cc1cc(C#N)ccc1S(=O)(=O)N1CCN(C(=O)c2ccc(N(C)C)nc2C)[C@@H](C)C1 [Example 30, 4-[((3S)-4-{[6-(Dimethylamino)-2-methyl-3-pyridinyl]carbonyl}-3-methyl-1-piperazinyl)sulfonyl]-3-methylbenzonitrile hydrochloride] | ≥ 10 µM
Cc1nc(N2CCOCC2)ccc1C(=O)N1CCN(S(=O)(=O)c2ccc(C(F)(F)F)cc2)C[C@@H]1C [Example 34, 4-{6-Methyl-5-[((2S)-2-methyl-4-{[4-(trifluoromethyl)phenyl]sulfonyl}-1-piperazinyl)carbonyl]-2-pyridinyl}morpholine hydrochloride] | ≥ 10 µM
Cc1cc(C#N)ccc1S(=O)(=O)N1CCN(C(=O)c2ccc(N3CCOCC3)nc2C)[C@@H](C)C1 [Example 35, 3-Methyl-4-[((3S)-3-methyl-4-{[2-methyl-6-(4-morpholinyl)-3-pyridinyl]carbonyl}-1-piperazinyl)sulfonyl]benzonitrile hydrochloride] | ≥ 10 µM
CNc1ccc(C(=O)N2CCN(S(=O)(=O)c3ccc(C#N)cc3C)C[C@@H]2C)c(C)n1 [Example 38, 3-Methyl-4-[((3S)-3-methyl-4-{[2-methyl-6-(methylamino)-3-pyridinyl]carbonyl}-1-piperazinyl)sulfonyl]benzonitrile] | ≥ 31.6 µM
Cc1nc(N2CCC2)ccc1C(=O)N1CCN(S(=O)(=O)c2ccc(C(F)(F)F)cc2)C[C@@H]1C [Example 39, (2S)-1-{[6-(1-Azetidinyl)-2-methyl-3-pyridinyl]carbonyl}-2-methyl-4-{[4-(trifluoromethyl)phenyl]sulfonyl}piperazine hydrochloride] | ≥ 31.6 µM
Cc1cc(C#N)ccc1S(=O)(=O)N1CCN(C(=O)c2ccc(N3CCC3)nc2C)[C@@H](C)C1 [Example 40, 4-[((38)-4-{[6-(1-Azetidinyl)-2-methyl-3-pyridinyl]carbonyl}-3-methyl-1-piperazinyl)sulfonyl]-3-methylbenzonitrile hydrochloride] | ≥ 31.6 µM
C[C@H]1CN(S(=O)(=O)c2ccc(C(F)(F)F)cc2)CCN1C(=O)c1ccc(N(C)C)nc1 [Example 41, N,N-Dimethyl-5-[((2S)-2-methyl-4-{[4-(trifluoromethyl)phenyl]sulfonyl}-1-piperazinyl)carbonyl]-2-pyridinamine hydrochloride] | ≥ 10 µM
C[C@H]1CN(S(=O)(=O)c2ccc(C(F)(F)F)cc2)CCN1C(=O)c1ccc(N2CCOCC2)nc1 [Example 42, 4-{5-[((2S)-2-Methyl-4-{[4-(trifluoromethyl)phenyl]sulfonyl}-1-piperazinyl)carbonyl]-2-pyridinyl}morpholine hydrochloride] | ≥ 10 µM
CNc1ccc(C(=O)N2CCN(S(=O)(=O)c3ccc(C(F)(F)F)cc3)C[C@@H]2C)cn1 [Example 44, Methyl-5-[((2S)-2-methyl-4-{[4-(trifluoromethyl)phenyl]sulfonyl}-1-piperazinyl)carbonyl]-2-pyridinamine hydrochloride] | ≥ 10 µM
C[C@H]1CN(S(=O)(=O)c2ccc(C(F)(F)F)cc2)CCN1C(=O)c1ccc(N2CCC2)nc1 [Example 45, (2S)-1-{[6-(1-Azetidinyl)-3-pyridinyl]carbonyl}-2-methyl-4-{[4-(trifluoromethyl)phenyl]sulfonyl}piperazine hydrochloride] | ≥ 10 µM
Cc1cc(N2CCOCC2)ncc1C(=O)N1CCN(S(=O)(=O)c2ccc(C(F)(F)F)cc2)C[C@@H]1C [Example 47, 4-{4-Methyl-5-[((2S)-2-methyl-4-{[4-(trifluoromethyl)phenyl]sulfonyl}-1-piperazinyl)carbonyl]-2-pyridinyl}morpholine hydrochloride] | ≥ 10 µM
Cc1ccc(C(=O)N2CCN(S(=O)(=O)c3ccc(C#N)cc3C)[C@@H](C)C2)cn1 [Example 52, 3-methyl-4-({(2S)-2-methyl-4-[(6-methyl-3-pyridinyl)carbonyl]-1-piperazinyl}sulfonyl)benzonitrile hydrochloride] | ≥ 31.6 µM
CCc1ccc(C(=O)N2CCN(S(=O)(=O)c3ccc(C#N)cc3C)C[C@@H]2C)cn1 [Example 53, 4-({(3S)-4-[(6-ethyl-3-pyridinyl)carbonyl]-3-methyl-1-piperazinyl}sulfonyl)-3-methylbenzonitrile hydrochloride] | ≥ 31.6 µM
CCN(CC)c1ccc(C(=O)N2CCN(S(=O)(=O)c3ccc(C(F)(F)F)cc3)CC2)cn1 [Example 56, N,N-diethyl-5-[(4-{[4-(trifluoromethyl)phenyl]sulfonyl}-1-piperazinyl)carbonyl]-2-pyridinamine] | ≥ 10 µM
CN(C)c1ccc(C(=O)N2CCN(S(=O)(=O)c3ccc(C(F)(F)F)cc3)CC2)cn1 [Example 57, N,N-dimethyl-5-[(4-{[4-(trifluoromethyl)phenyl]sulfonyl}-1-piperazinyl)carbonyl]-2-pyridinamine] | ≥ 31.6 µM
Cc1ncccc1C(=O)N1CCN(S(=O)(=O)c2ccc(OC(F)(F)F)cc2)C[C@H]1C [Example 58, (2R)-2-methyl-1-[(2-methyl-3-pyridinyl)carbonyl]-4-({4-[(trifluoromethyl)oxy]phenyl}sulfonyl)piperazine] | ≥ 31.6 µM
Cc1ccc(C(=O)N2CCN(S(=O)(=O)c3cc(C(F)(F)F)ccc3C)C[C@@H]2C)cn1 [Example 59, (2S)-2-methyl-1-[(6-methyl-3-pyridinyl)carbonyl]-4-{[2-methyl-5-(trifluoromethyl)phenyl]sulfon-yl}piperazine] | ≥ 31.6 µM
Cc1ccc(C(F)(F)F)cc1S(=O)(=O)N1CCN(C(=O)c2cccnc2C)[C@@H](C)C1 [Example 60, (2S)-2-methyl-1-[(2-methyl-3-pyridinyl)carbonyl]-4-{[2-methyl-5-(trifluoromethyl)phenyl]sulfon-yl}piperazine] | ≥ 10 µM
Cc1ccc(C(=O)N2CCN(S(=O)(=O)c3cc(C(F)(F)F)ccc3C)CC2)cn1 [Example 61, 1-[(6-methyl-3-pyridinyl)carbonyl]-4-{[2-methyl-5-(trifluoromethyl)phenyl]sulfon-yl}piperazine] | ≥ 31.6 µM
Cc1ccc(C(F)(F)F)cc1S(=O)(=O)N1CCN(C(=O)c2cccnc2C)CC1 [Example 62, 1-[(2-methyl-3-pyridinyl)carbonyl]-4-{[2-methyl-5-(trifluoromethyl)phenyl]sulfon-yl}piperazine] | ≥ 31.6 µM
Cc1ccc(C(=O)N2CCN(S(=O)(=O)c3ccc(C#N)cc3C)C[C@H]2C)cn1 [Example 63, 3-methyl-4-({(3R)-3-methyl-4-[(6-methyl-3-pyridinyl)carbonyl]-1-piperazinyl}sulfonyl)benzo-nitrile] | ≥ 31.6 µM
Cc1ncccc1C(=O)N1CCN(S(=O)(=O)c2ccc(OC(F)(F)F)cc2)C[C@@H]1C [Example 64, (2S)-2-methyl-1-[(2-methyl-3-pyridinyl)carbonyl]-4-({4-[(trifluoromethyl)oxy]phenyl}sulfonyl)piperazine] | ≥ 31.6 µM
Cc1ncccc1C(=O)N1CCN(S(=O)(=O)c2ccc(OC(F)(F)F)cc2)C[C@H]1C [Example 65, (2R)-2-methyl-1-[(2-methyl-3-pyridinyl)carbonyl]-4-({4-[(trifluoromethyl)oxy]phenyl}sulfonyl)piperazine] | ≥ 31.6 µM
